Columns and labels:
[1] = biological target: C-C chemokine receptor type 2 (Homo sapiens, UniProt P41597); format: cell membranes, CHO-K1, Membrane; note: in other assays of this panel Not Active means under 50% inhibition at 10 µM
[2] = biological target: T1, D(4) dopamine receptor (Homo sapiens, UniProt P21917); assay: DRUGMATRIX: Dopamine D4.2 radioligand binding (ligand: [3H] Spiperone); format: cell membranes, CHO-K1, Membrane; conditions: cho-k1; Not Active = under 50% inhibition at 10 µM
T1 sequence (P21917 whole entry): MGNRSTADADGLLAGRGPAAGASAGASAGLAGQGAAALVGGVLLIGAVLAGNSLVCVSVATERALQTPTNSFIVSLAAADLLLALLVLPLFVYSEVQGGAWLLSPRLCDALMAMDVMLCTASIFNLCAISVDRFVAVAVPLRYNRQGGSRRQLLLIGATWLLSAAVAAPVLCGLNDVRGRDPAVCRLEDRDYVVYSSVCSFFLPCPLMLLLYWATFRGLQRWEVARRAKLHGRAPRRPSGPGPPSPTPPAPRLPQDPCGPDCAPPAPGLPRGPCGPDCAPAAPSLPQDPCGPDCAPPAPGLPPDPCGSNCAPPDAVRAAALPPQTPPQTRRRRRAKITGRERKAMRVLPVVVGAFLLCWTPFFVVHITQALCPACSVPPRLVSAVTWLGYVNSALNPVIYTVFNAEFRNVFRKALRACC

[3] = biological target: Melanocortin receptor 5 (Homo sapiens, UniProt P33032); format: cell membranes, HEK293, Membrane; conditions: hek293; note: in other assays of this panel Not Active means under 50% inhibition at 10 µM
Sequence of Melanocortin receptor 5 (P33032 whole entry): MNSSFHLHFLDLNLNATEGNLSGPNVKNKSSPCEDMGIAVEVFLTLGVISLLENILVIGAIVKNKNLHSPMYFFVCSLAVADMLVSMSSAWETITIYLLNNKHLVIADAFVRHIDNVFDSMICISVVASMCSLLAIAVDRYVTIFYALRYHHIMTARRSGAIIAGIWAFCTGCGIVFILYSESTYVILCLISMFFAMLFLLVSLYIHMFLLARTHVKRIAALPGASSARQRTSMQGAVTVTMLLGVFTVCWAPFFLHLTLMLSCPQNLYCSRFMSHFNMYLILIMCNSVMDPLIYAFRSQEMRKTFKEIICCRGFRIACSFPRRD

[4] = biological target: Receptor tyrosine-protein kinase erbB-2 (Homo sapiens, UniProt P04626); assay: biochemical; format: cell-based, Insect cells; conditions: insect cells;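 note: inhibition of HER2 kinase enzyme activity, measured with Poly(Glu:Tyr) as the phosphorylation substrate; in other assays of this panel Not Active means under 50% inhibition at 10 µM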
[5] = biological target: T2, Cytochrome P450 1A2 (Homo sapiens, UniProt P05177); conditions: bti-tn-5b1-4; note: in other assays of this panel Not Active means under 50% inhibition at 10 µM
T2 sequence (P05177 whole entry): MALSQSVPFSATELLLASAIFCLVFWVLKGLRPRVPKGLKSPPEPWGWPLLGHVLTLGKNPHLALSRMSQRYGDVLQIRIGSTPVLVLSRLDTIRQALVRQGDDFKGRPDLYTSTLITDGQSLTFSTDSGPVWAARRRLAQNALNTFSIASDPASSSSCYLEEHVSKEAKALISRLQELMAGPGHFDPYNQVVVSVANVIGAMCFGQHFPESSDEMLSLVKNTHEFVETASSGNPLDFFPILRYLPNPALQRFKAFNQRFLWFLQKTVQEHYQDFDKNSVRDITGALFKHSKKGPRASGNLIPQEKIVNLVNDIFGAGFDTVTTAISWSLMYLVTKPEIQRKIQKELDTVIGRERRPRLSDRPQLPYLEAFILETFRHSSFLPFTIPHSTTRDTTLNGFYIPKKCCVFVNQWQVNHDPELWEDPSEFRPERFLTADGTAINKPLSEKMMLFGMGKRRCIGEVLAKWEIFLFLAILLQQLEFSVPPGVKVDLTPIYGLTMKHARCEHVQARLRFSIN

[6] = biological target: Cytochrome P450 2C9 (Homo sapiens, UniProt P11712); conditions: bti-tn-5b1-4; note: in other assays of this panel Not Active means under 50% inhibition at 10 µM
Sequence of Cytochrome P450 2C9 (P11712 whole entry): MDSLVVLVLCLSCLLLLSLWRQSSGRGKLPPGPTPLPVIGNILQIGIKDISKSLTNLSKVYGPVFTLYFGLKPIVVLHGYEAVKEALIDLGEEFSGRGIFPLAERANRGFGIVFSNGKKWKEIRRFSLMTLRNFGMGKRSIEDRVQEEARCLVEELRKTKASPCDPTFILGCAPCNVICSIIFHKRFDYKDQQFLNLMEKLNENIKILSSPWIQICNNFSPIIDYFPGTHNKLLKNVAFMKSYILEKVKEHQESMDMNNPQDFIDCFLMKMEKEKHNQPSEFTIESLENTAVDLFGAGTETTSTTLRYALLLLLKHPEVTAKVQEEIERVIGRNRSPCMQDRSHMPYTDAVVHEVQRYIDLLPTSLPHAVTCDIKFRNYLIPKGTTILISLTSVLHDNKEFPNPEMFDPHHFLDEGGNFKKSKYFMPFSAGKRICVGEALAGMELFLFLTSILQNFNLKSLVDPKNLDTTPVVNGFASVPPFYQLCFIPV

[7] = biological target: Cytochrome P450 3A4 (Homo sapiens, UniProt P08684); conditions: bti-tn-5b1-4; note: in other assays of this panel Not Active means under 50% inhibition at 10 µM
Sequence of Cytochrome P450 3A4 (P08684 whole entry): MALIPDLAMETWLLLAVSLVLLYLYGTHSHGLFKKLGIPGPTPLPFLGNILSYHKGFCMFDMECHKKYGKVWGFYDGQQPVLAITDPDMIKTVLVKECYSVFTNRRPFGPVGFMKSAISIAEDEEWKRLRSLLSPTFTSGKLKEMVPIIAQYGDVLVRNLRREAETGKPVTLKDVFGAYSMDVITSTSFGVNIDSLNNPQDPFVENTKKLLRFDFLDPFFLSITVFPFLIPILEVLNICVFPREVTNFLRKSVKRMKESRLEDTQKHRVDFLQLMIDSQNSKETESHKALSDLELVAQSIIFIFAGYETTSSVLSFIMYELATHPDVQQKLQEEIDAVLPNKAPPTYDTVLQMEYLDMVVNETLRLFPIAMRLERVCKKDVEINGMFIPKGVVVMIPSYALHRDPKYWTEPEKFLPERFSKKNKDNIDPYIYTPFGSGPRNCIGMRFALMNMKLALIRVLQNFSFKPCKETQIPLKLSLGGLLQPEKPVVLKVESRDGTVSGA

Sequence of C-C chemokine receptor type 2 (P41597 whole entry): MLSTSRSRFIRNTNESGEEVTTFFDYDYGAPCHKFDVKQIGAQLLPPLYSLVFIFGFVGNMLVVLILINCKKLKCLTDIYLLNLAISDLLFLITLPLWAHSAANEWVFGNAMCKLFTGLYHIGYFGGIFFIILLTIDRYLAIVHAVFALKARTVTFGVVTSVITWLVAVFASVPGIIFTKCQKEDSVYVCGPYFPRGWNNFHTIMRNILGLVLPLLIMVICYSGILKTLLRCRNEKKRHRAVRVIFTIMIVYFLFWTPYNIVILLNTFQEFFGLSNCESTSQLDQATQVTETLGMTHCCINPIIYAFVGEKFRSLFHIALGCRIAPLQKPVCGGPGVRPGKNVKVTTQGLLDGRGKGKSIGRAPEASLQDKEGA

Compound	IC50 ([1]; cho-k1)	IC50 [2]	IC50 [3]	IC50 [4]	IC50 [5]	Ki [5]	IC50 [6]	Ki [6]	IC50 [7]	Ki [7]	IC50 ([1]; read-out: IC50) [µM]	Ki ([1]; read-out: Ki) [µM]	Ki ([1]; cho-k1)	Ki [2]	Ki [3]	Ki [4]
C=C(CC)C(=O)c1ccc(OCC(=O)O)c(Cl)c1Cl [ETHACRYNIC ACID]	Not Active	Not Active	Not Active	Not Active	Not Active	Not Active	Not Active	Not Active	Not Active	Not Active	–	–	–	–	–	–
CCOC(=O)[C@H](CCc1ccccc1)N[C@@H](C)C(=O)N1Cc2ccccc2C[C@H]1C(=O)O	Not Active	Not Active	Not Active	Not Active	Not Active	Not Active	Not Active	Not Active	Not Active	Not Active	–	–	–	–	–	–
CC[C@H]1OC(=O)[C@H](C)[C@@H](O[C@H]2C[C@@](C)(OC)[C@@H](O)[C@H](C)O2)[C@H](C)[C@@H](O[C@@H]2O[C@H](C)C[C@H](N(C)C)[C@H]2O)[C@](C)(OC)C[C@@H](C)C(=O)[C@H](C)[C@@H](O)[C@]1(C)O [CLARITHROMYCIN]	Not Active	Not Active	Not Active	Not Active	Not Active	Not Active	Not Active	Not Active	Not Active	Not Active	–	–	–	–	–	–
CC(=O)O[C@]1(C(C)=O)CC[C@H]2[C@@H]3C=C(Cl)C4=CC(=O)[C@@H]5C[C@@H]5[C@]4(C)[C@H]3CC[C@@]21C [CYPROTERONE ACETATE]	Not Active	Not Active	Not Active	Not Active	Not Active	Not Active	Not Active	Not Active	Not Active	Not Active	–	–	–	–	–	–
CC(C)(Oc1ccc(C2CC2(Cl)Cl)cc1)C(=O)O (stereo not given) [CIPROFIBRATE]	Not Active	Not Active	Not Active	Not Active	Not Active	Not Active	Not Active	Not Active	Not Active	Not Active	–	–	–	–	–	–
CC(C)(C)c1ccc(S(=O)(=O)/C=C/C#N)cc1 [BAY-11-7085]	–	Not Active	Not Active	Not Active	Not Active	Not Active	Not Active	Not Active	Not Active	Not Active	4.18	1.61	–	–	–	–
Cc1cccc(Nc2ccccc2C(=O)O)c1C [MEFENAMIC ACID]	Not Active	Not Active	Not Active	Not Active	Not Active	Not Active	Not Active	Not Active	Not Active	Not Active	–	–	–	–	–	–
NC[C@@H]1O[C@H](O[C@H]2[C@@H](O)[C@H](O[C@@H]3[C@@H](O)[C@H](N)C[C@H](N)[C@H]3O[C@H]3O[C@H](CN)[C@@H](O)[C@H](O)[C@H]3N)O[C@@H]2CO)[C@H](N)[C@@H](O)[C@@H]1O [FRAMYCETIN]	Not Active	Not Active	Not Active	Not Active	Not Active	Not Active	Not Active	Not Active	Not Active	Not Active	–	–	–	–	–	–
CC[C@]1(O)CC[C@H]2[C@@H]3CCC4=CCCC[C@@H]4[C@H]3CC[C@@]21C	Not Active	Not Active	Not Active	Not Active	Not Active	Not Active	Not Active	Not Active	Not Active	Not Active	–	–	–	–	–	–
CN(C(=O)CCCOc1ccc2[nH]c(=O)ccc2c1)C1CCCCC1 [CILOSTAMIDE]	Not Active	Not Active	Not Active	Not Active	Not Active	Not Active	Not Active	Not Active	Not Active	Not Active	–	–	–	–	–	–
CC(=O)OCC(CCn1cnc2cnc(N)nc21)COC(C)=O [FAMCICLOVIR]	Not Active	Not Active	Not Active	Not Active	Not Active	Not Active	Not Active	Not Active	Not Active	Not Active	–	–	–	–	–	–
COC(=O)c1ccccc1O [METHYL SALICYLATE]	Not Active	Not Active	Not Active	Not Active	Not Active	Not Active	Not Active	Not Active	Not Active	Not Active	–	–	–	–	–	–
C[C@H]([C@](O)(Cn1cncn1)c1ccc(F)cc1F)S(C)(=O)=O [GENACONAZOLE]	Not Active	Not Active	Not Active	Not Active	Not Active	Not Active	Not Active	Not Active	Not Active	Not Active	–	–	–	–	–	–
Clc1cc2c(cc1Cl)Oc1cc(Cl)c(Cl)cc1O2 [2,3,7,8-TETRACHLORODIBENZO-P-DIOXIN]	Not Active	Not Active	Not Active	Not Active	Not Active	Not Active	Not Active	Not Active	Not Active	Not Active	–	–	–	–	–	–
Nn1nnc2ccccc21	Not Active	Not Active	Not Active	Not Active	Not Active	Not Active	Not Active	Not Active	Not Active	Not Active	–	–	–	–	–	–
COc1ccccc1OCC(O)COC(N)=O (stereo not given) [METHOCARBAMOL]	Not Active	Not Active	Not Active	Not Active	Not Active	Not Active	Not Active	Not Active	Not Active	Not Active	–	–	–	–	–	–
CC(C(=O)O)c1ccc(-c2ccccc2)c(F)c1 (stereo not given) [FLURBIPROFEN]	Not Active	Not Active	Not Active	Not Active	Not Active	Not Active	Not Active	Not Active	Not Active	Not Active	–	–	–	–	–	–
Cc1c(F)c(N2CCNC(C)C2)cc2c1c(=O)c(C(=O)O)cn2C1CC1 (stereo not given) [GREPAFLOXACIN]	Not Active	Not Active	Not Active	Not Active	Not Active	Not Active	Not Active	Not Active	Not Active	Not Active	–	–	–	–	–	–
Oc1ccccc1O [CATECHOL]	Not Active	Not Active	Not Active	Not Active	Not Active	Not Active	Not Active	Not Active	Not Active	Not Active	–	–	–	–	–	–
O=P1(N(CCCl)CCCl)NCCCO1 (stereo not given) [CYCLOPHOSPHAMIDE ANHYDROUS]	Not Active	Not Active	Not Active	Not Active	Not Active	Not Active	Not Active	Not Active	Not Active	Not Active	–	–	–	–	–	–
INSULIN HUMAN	Not Active	Not Active	Not Active	Not Active	Not Active	Not Active	Not Active	Not Active	Not Active	Not Active	–	–	Not Active	Not Active	Not Active	Not Active

From ChEMBL document CHEMBL1909046, “DrugMatrix in vitro pharmacology data”
